Assay results taken from patent publication US9962375B2, “Methyl-piperidine compounds useful for inhibiting microsomal prostaglandin E2 synthase-1” (Eli Lilly and Company, priority 2014, dated 2018).

Key:
[1] = system: PGE2 formation in human epithelial lung carcinoma cell line A549; experiment: Cell Based Assay for Measuring Eicosanoid Selectivity (rhIL-1β induced PGE2 in A549 cells); conditions: 0.1 ng/mL rhIL-1β, approximately 18 hours, EIA, ±0.00301, n=2, read-out: IC50 for inhibition of PGE2 formation
Method: Cell Based Assay for Measuring Eicosanoid Selectivity
Human epithelial lung carcinoma cell line A549 is obtained from ATCC (CCL-185) and maintained in Kaighn's F12 cell culture medium+10% fetal bovine serum (FBS) (plating medium) under standard 5% CO2 humidified atmosphere at 37° C. The cells are passaged at 1:3 twice per week.
For the assays, cells are released from flasks by washing once with PBS, then once with Trypsin/EDTA. After 3-5 minutes at 37° C., the cells are suspended in plating medium and centrifuged at 2,000 rpm, 25° C., for 5 minutes. The supernatant is aspirated and the cell pellet is resuspended in F12K plating medium. The cell number is determined by counting an aliquot of cells which has been diluted in PBS and Trypan blue on a hemocytometer. Cells are plated at 40,000/well in 96 well Falcon plates 24 hours prior to treatment. Compounds are diluted in DMSO to 100× of the final concentration in Screen Mates tubes. The medium is removed from the cells and fresh medium (90 μL/well) is added to the cells. The compounds are added at 1 μL/well, n=2, to give seven concentrations each. Cells are pretreated with compounds for 30 minutes at 37° C., 5% CO2. […] After approximately 90-120 minutes at room temperature on an orbital shaker at 100 rpm, the plates are read at A412 on a plate reader. […]

[2] = molecular target: T1, Human mPGES-1 (Homo sapiens, UniProt O14684); experiment: Human mPGES-1 Enzyme Inhibition Assay; type: biochemical; conditions: microsomes from 293E cells, 1.67 μM PGH2, PGE2 by LC/MS; ±0.00064, n=17
T1 construct: host or cells: 293E cells (transient expression; microsomes prepared from cell pellets)
T1 sequence (O14684 1-152): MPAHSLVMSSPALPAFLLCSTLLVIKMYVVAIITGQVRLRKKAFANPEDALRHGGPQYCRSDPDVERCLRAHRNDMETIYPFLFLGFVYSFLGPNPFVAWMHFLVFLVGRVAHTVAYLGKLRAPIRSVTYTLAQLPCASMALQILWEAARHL
Method: Human mPGES-1 Enzyme Inhibition Assay
Human mPGES-1 (Invitrogen™ (Cat#97002RG, clone ID 6374722)) is subcloned into pcDNA3.1 and transiently expressed in 293E cells. Microsomes are prepared from cell pellets based on published methods (Oullet et al., Purification and characterization of recombinant microsomal prostaglandin E synthase-1, Protein Expression and Purification, 26 pp 489-495 (2002); and Thoren et al., Human Microsomal Prostanglandin E Synthase-1, J. Biol Chem. 278(25) pp 22199-22209 (2003)). Briefly, pellets are brought up in homogenization buffer (15 mM Tris-HCl, pH 8.0; 0.25 M sucrose; 0.1 mM EDTA; 1 mM glutathione) and sonicated 5×30 seconds on ice. Homogenate is centrifuged at 5,000×g for 10 minutes at 4° C. The supernatant fraction is decanted and loaded into Beckman Quick-Seal® tubes and centrifuged at 150,000×g. for 90 minutes at 4° C. The supernatant fraction is discarded by decantation and the pellets are re-suspended in assay buffer (10 mM sodium phosphate, pH 7.0; 10% glycerol; 2.5 mM glutathione; Complete Protease Inhibitor Cocktail (Roche)). Protein concentration is determined using the Pierce Coomassie Plus™ reagent.
For the enzyme assay, the microsomes are diluted into assay buffer and 14 μL/well of the resulting solution is added to 384 well assay plates. […]

[3] = system: PGE2 formation in human whole blood; experiment: Human Whole Blood Assay (LPS induced PGE2); type: cell-based; conditions: 100 μg/mL LPS, 20-24 hours, LC/MS/MS, n=11, read-out: IC50 for inhibition of PGE2 formation in human whole blood
Method: Blood is collected from normal volunteer donors into sodium heparin VACUTAINER tubes. Donors are selected, in part, on their confirmation that they have not taken NSAIDs, aspirin, Celebrex®, or glucocorticoids within two weeks of the donation. All tubes/donor are pooled into 250 mL Corning conical centrifuge tubes and 436.5 μL/well is distributed into deep well polypropylene plates. Compounds are diluted in DMSO to 100× final and 4.5 μL/well in duplicate or triplicate is added to give 7 point curves. […] One hundred microliters is quantitatively transferred to Costar cluster tubes blocks and 400 μL/well of the MeOH stop reagent and internal standards, d4-PGE2, d4-PGF2α, and d4-TXA2β are added. […]
Solid phase extraction is performed using Waters HLB 30 mg/bed 96 well plates on a vacuum manifold: Step 1, the matrix is washed with MeOH (1 mL), followed by 0.1% formic acid in water (1 mL); Step 2, 400 μL sample is applied along with 0.1% formic acid in water (900 μL) and allowed to bind for 5 minutes; Step 3, the matrix is washed with 0.1% formic acid in water (600 μL), followed by 80/20 water/MeOH (600 μL); Step 4, the products are eluted with 2-500 μL volumes of EtOAc; Step 5 the samples are dried under nitrogen and reconstituted in 75/25 water/acetonitrile with 0.1% formic acid (50 μL). The products are analyzed by LC/MS/MS.

Cc1cccc2ccc(N3CC[C@H](C(=O)N[C@H]4CCO[C@H](CO)C4)C(C)(C)C3)nc12 [Example 1, (S)-N-((2S,4S)-2-(Hydroxymethyl)tetrahydro-2H-pyran-4-yl)-3,3-dimethyl-1-(8-methylquinolin-2-yl)piperidine-4-carboxamide]
IC50 [1]: 4.71 nM
IC50 [2]: 1.93 nM
IC50 [3]: 2.05 ± 0.82 nM
